Literature values as cited in PMC6311893, “Computational prediction of plasma protein binding of cyclic peptides from small molecule experimental data using sparse modeling techniques” (BMC Bioinformatics, 2018).

System: plasma protein
Details: cited from earlier work

Row | Molecule | PPB (fb)
1 | O=C(O)[C@H]1O[C@@H](Oc2cc3oc(-c4ccc(O)cc4)cc(=O)c3c(O)c2O)[C@H](O)[C@@H](O)[C@@H]1O [scutellarin] | 0.82

Same assay, conditions: fraction bound to plasma protein; small molecule dataset, sheet 1-SM (Set Dte = test, Dtr = training); ref Ingle et al.; cited from earlier work

Row | Molecule | PPB (fb)
2 | CCn1cc(C(=O)O)c(=O)c2cc(F)c(N3CCNC(C)C3)c(F)c21 (stereo not drawn) [lomefloxacin] | 0.12
3 | NCC(CC(=O)O)c1ccc(Cl)cc1 (stereo not drawn) [baclofen] | 0.3
4 | CC(CC1c2ccccc2CCc2ccccc21)CN(C)C (stereo not drawn) [butriptyline] | 0.95
5 | CCNCC(O)c1cccc(O)c1 (stereo not drawn) [Etilefrine] | 0.24
6 | Cn1cc[nH]c1=S [thiamazole] | 0
7 | CCOc1nc2cccc(C(=O)O)c2n1Cc1ccc(-c2ccccc2-c2nnn[nH]2)cc1 [candesartan] | 0.99
8 | C=C(c1ccc(C(=O)O)cc1)c1cc2c(cc1C)C(C)(C)CCC2(C)C [Bexarotene] | 0.99
9 | CC(=O)O[C@H]1C[C@@H]2CC[C@@H]3[C@H](CC[C@@]4(C)[C@H]3C[C@H](N3CC[N+](C)(C)CC3)[C@@H]4OC(C)=O)[C@@]2(C)C[C@@H]1N1CC[N+](C)(C)CC1 [Pipecuronium] | 0.02
10 | CN(C)CCCOc1nn(Cc2ccccc2)c2ccccc12 [benzydamine] | 0.1
11 | CCCCCN(C)CCC(O)(P(=O)(O)O)P(=O)(O)O [Ibandronic Acid (Ibandronate)] | 0.85
12 | C=CCN1C[C@H](C(=O)N(CCCN(C)C)C(=O)NCC)C[C@@H]2c3cccc4[nH]cc(c34)C[C@H]21 [cabergoline] | 0.41
13 | O=C(O)c1cc(=O)c2c(OCC(O)COc3cccc4oc(C(=O)O)cc(=O)c34)cccc2o1 [cromolyn] | 0.68
14 | CNC(=C[N+](=O)[O-])NCCSCc1ccc(CN(C)C)o1 [Ranitidine] | 0.1
15 | C[C@](N)(Cc1ccc(O)c(O)c1)C(=O)O [Methyldopa] | 0.13

Same assay, conditions: fraction bound to plasma protein; small molecule dataset, sheet 1-SM, Set Dtr; ref Ingle et al.; cited from earlier work

Row | Molecule | PPB (fb)
16 | Nc1cc(-c2ccncc2)c[nH]c1=O [Amrinone] | 0.11
17 | Clc1cccc(Cl)c1N=C1NCCN1 [Clonidine] | 0.34
18 | CC(C)(C)NCC(O)c1ccc(O)c(CO)c1 (stereo not drawn) [Albuterol (salbutamol)] | 0.09
19 | Cc1nccn1CC1CCc2c(c3ccccc3n2C)C1=O (stereo not drawn) [Ondansetron] | 0.73
20 | CCC[C@@H]1C[C@@H](C(=O)N[C@@H]([C@H]2O[C@H](SC)[C@H](O)[C@@H](O)[C@H]2O)[C@@H](C)O)N(C)C1 [Lincomycin] | 0.76
21 | CCC1CN2CCC1CC2[C@@H](O)c1ccnc2ccc(OC)cc12 (stereo partly drawn) [Dihydroquinidine] | 0.78
22 | COc1ccccc1N1CCN(CCCNc2cc(=O)n(C)c(=O)n2C)CC1 [urapidil] | 0.8
23 | NCCCCCC(=O)O [Aminohexanoic acid] | 0.08
24 | Nc1nc(/C(=N/O)C(=O)N[C@@H]2C(=O)N3C(C(=O)O)=C(/C=C4\CCN([C@@H]5CCNC5)C4=O)CS[C@H]23)ns1 [Ceftobiprole] | 0.38
25 | NNc1nncc2ccccc12 [Hydralazine] | 0.87
26 | OCC(CO)N[C@H]1C[C@](O)(CO)[C@@H](O)[C@H](O)[C@H]1O [voglibose] | 0.14
27 | COc1ccc(C[C@@H]2c3cc(OC)c(OC)cc3CC[N@+]2(C)CCC(=O)OCCCCCOC(=O)CC[N@@+]2(C)CCc3cc(OC)c(OC)cc3[C@H]2Cc2ccc(OC)c(OC)c2)cc1OC [Cisatracurium] | 0.38
28 | CCCC(=O)Nc1ccc(OCC(O)CNC(C)C)c(C(C)=O)c1 (stereo not drawn) [Acebutolol] | 0.24
29 | CC(=O)OCC1=C(C(=O)O)N2C(=O)[C@@H](NC(=O)Cc3cccs3)[C@H]2SC1 [Cephalothin] | 0.73
30 | COc1c(Cl)ccc(Cl)c1C(=O)O [Dicamba] | 0.9
31 | C#C[C@]1(O)CC[C@H]2[C@@H]3CCc4cc(O)ccc4[C@H]3CC[C@@]21C [Ethinylestradiol] | 0.97
32 | N=C(N)NC(=O)c1cnn(-c2cccc3ncccc23)c1C1CC1 [zoniporide] | 0.5

Same assay, conditions: fraction bound to plasma protein; small molecule dataset, sheet 1-SM; ref Ingle et al.; cited from earlier work

Row | Molecule | PPB (fb)
33 | COC(CC(=O)NC1C(=O)N2C1SC(C)(C)C2C(=O)O)c1cccs1 (stereo not drawn) [penicillin73] | 0.59
34 | CC(=O)/N=c1/sc(S(N)(=O)=O)nn1C [methazolamide] | 0.55
35 | Cc1c(O)cccc1C(=O)N[C@@H](CSc1ccccc1)[C@H](O)CN1C[C@H]2CCCC[C@H]2C[C@H]1C(=O)NC(C)(C)C [nelfinavir] | 0.99
36 | CN1CCC(=C2c3ccccc3CC(=O)c3sccc32)CC1 [ketotifen] | 0.8
37 | CCC1(C)OC(=O)N(C)C1=O (stereo not drawn) [paramethadione] | 0
38 | O=P(O)(O)C(Sc1ccc(Cl)cc1)P(=O)(O)O [tiludronic acid] | 0.9
39 | CC[C@@H](C(N)=O)N1CCCC1=O [levetiracetam] | 0.05
40 | Cc1noc(NS(=O)(=O)c2ccc(N)cc2)c1C [Sulfisoxazole] | 0.92
41 | CN1CCOC(c2ccccc2)c2ccccc2C1 (stereo not drawn) [nefopam] | 0.73
42 | CC(C(=O)NC1C(=O)N2C1SC(C)(C)C2C(=O)O)c1ccccc1 (stereo not drawn) [penicillin19] | 0.68
43 | Cc1cccc(Nc2ccncc2S(=O)(=O)NC(=O)NC(C)C)c1 [Torasemide] | 0.99
44 | CCC1(c2ccccc2)C(=O)NCNC1=O [primidone] | 0.2
45 | O=C1NC(c2ccccc2)(c2ccccc2)C(=O)N1COP(=O)(O)O [fosphenytoin] | 0.95
46 | Cc1nc2ccc(CN(C)c3ccc(C(=O)N[C@@H](CCC(=O)O)C(=O)O)s3)cc2c(=O)[nH]1 [raltitrexed] | 0.93
47 | NS(=O)(=O)c1ccc(S(=O)(=O)Nc2cccc3c(Cl)c[nH]c23)cc1 [indisulam] | 0.98
48 | CCc1ccc(CCOc2ccc(CC3SC(=O)NC3=O)cc2)nc1 (stereo not drawn) [pioglitazone] | 0.99
49 | CCCN1CCCC[C@H]1C(=O)Nc1c(C)cccc1C [Ropivacaine] | 0.94
50 | O=C1C(CC[S+]([O-])c2ccccc2)C(=O)N(c2ccccc2)N1c1ccccc1 (stereo not drawn) [Sulfinpyrazone] | 0.98
51 | CC1(C)SC2C(NC(=O)COc3ccc(F)cc3)C(=O)N2C1C(=O)O (stereo not drawn) [penicillin54] | 0.81
52 | O=C(NCCNCC(O)COc1ccc(O)cc1)N1CCOCC1 (stereo not drawn) [Xamoterol] | 0.03

Same assay, conditions: plasma; cited from earlier work

Row | Molecule | PPB (fb)
53 | CN[C@@H](C)[C@@H](O)c1ccccc1 [pseudoephedrine] | 0
54 | COc1cc(CC2c3c(cc(OC)c(OC)c3OC)CC[N+]2(C)CCCOC(=O)CCC(=O)OCCC[N+]2(C)CCc3cc(OC)c(OC)c(OC)c3C2Cc2cc(OC)c(OC)c(OC)c2)cc(OC)c1OC (stereo not drawn) [Doxacurium] | 0.39
55 | CCC1(c2ccccc2)C(=O)NC(=O)N(C)C1=O (stereo not drawn) [methylphenobarbital] | 0.5
56 | CN[C@@H](C)Cc1ccccc1 [Methamphetamine] | 0.15
57 | COc1cc(CCN)cc(OC)c1OC [mescaline] | 0.15
58 | CCC(C)C1(CC)C(=O)NC(=O)NC1=O (stereo not drawn) [secbutabarbital] | 0.26
59 | O=[N+]([O-])O[C@H]1CO[C@H]2[C@@H]1OC[C@H]2O[N+](=O)[O-] [Isosorbide Dinitrate] | 0.29
60 | ethyl-biscoumacetate | 0.9
61 | CC(C)=CCN1CCC2(C)c3cc(O)ccc3CC1C2C (stereo not drawn) [Pentazocine] | 0.61
62 | CCC1(c2ccccc2)C(=O)NC(=O)NC1=O [Phenobarbital] | 0.43
63 | C=CCC1(C(C)C)C(=O)NC(=O)NC1=O [aprobarbital] | 0.62
